Where two headings read alike, the source gives them in different places.
Assays:
[1] = system: patient with clinical symptoms of RLS; assay: Side effects and augmentation in a third patient with RLS, Example 2; assay type: in vivo; conditions: iron dextran 200 mg daily
Method: (§1) A subsequent clinical observational study included a patient with clinical symptoms of RLS and an IRLSS score of 26 on the diagnostic evaluation under treatment with L-dopa (levodopa) and carbidopa (Sinernet®, fixed combination dosage of 100 mg L-dopa and 25 mg carbidopa) (FIG. 2; A). The patient needed to be treated with altogether three tablets per evening in order to obtain acceptable symptom relief (IRLSS score 4. FIG. 2; B). […] An attempt to discontinue dopaminergic treatment altogether failed. Following this discontinuation there was a substantial symptom relapse (IRLSS score 15. FIG. 2; E).

[2] = system: patient with clinical symptoms of RLS; assay: IRLSS score in a third patient with RLS, Example 2; assay type: in vivo; conditions: iron dextran, after discontinuation of dopaminergic treatment (FIG. 2; E)
Method: (§2) RLS and PLMS are typically diagnosed by patient history and standardized questionnaires as well as by polysomnographic evaluation.
as §1

[3] = system: patients with moderate to severe RLS/PMLS; assay: IRLSS score in two patients with RLS/PLMS, Example 1; assay type: in vivo
Text: as §2

[4] = system: patients with moderate to severe RLS/PMLS; conditions: pramipexole 0.35 mg once daily evening dose for 21 days
Method: (§3) Due to remaining RLS complaints iron sucrose therapy in the dosage 500 mg i.v. twice, was introduced during one week (FIG. 1; C).

[5] = system: patients with moderate to severe RLS/PMLS; conditions: both patients; pramipexole 0.35 mg once daily for 21 days
Method: as §3

In the case of iron dextran, the adverse effects [1] was “did not cause any adverse effects” and the IRLSS score [2] was 15.
With iron sucrose the IRLSS score ([3]; patient with baseline IRLSS 28, after iron sucrose infusions, pramipexole discontinued for one week (FIG. 1; D)) was 18 and the IRLSS score ([3]; patient with baseline IRLSS 30, after iron sucrose infusions, pramipexole discontinued for one week (FIG. 1; D)) was 14.
`CCCN[C@H]1CCc2nc(N)sc2C1` [Pramipexole] was tested, and the PLMI ([4]; patient with baseline PLMI 3) was 0, the PLMI ([4]; patient with baseline PLMI 17) was 2 and the side effects [5] was “No side effects were reported”. It also gave an IRLSS score ([3]; patient with baseline IRLSS 28, pramipexole 0.35 mg once daily, day 21 (FIG. 1; B)) of 17 and an IRLSS score ([3]; patient with baseline IRLSS 30, pramipexole 0.35 mg once daily, day 21 (FIG. 1; B)) of 15.

Source: patent publication US20090304816A1, “METHOD AND COMPOSITION FOR TREATING AND DIAGNOSING RESTLESS LEGS SYNDROME” (CEREUSCIENCE AB, priority 2005, published 2009)
